Source: patent US20080171716A1, “NUCLEIC ACID MODULATION OF TOLL-LIKE RECEPTOR-MEDIATED IMMUNE STIMULATION” (Protiva Biotherapeutics, Inc., priority 2006, published 2008)

Columns and labels:
[1] = molecular target: T1, TLR7 (Mus musculus, UniProt P58681); assay: In vivo inhibition of loxoribine-mediated cytokine induction in mice; set-up: from tissue; host or cells: whole animal: female Balb/C mice, plasma cytokines; species or system Balb/C mice
T1 sequence (P58681 27-1050): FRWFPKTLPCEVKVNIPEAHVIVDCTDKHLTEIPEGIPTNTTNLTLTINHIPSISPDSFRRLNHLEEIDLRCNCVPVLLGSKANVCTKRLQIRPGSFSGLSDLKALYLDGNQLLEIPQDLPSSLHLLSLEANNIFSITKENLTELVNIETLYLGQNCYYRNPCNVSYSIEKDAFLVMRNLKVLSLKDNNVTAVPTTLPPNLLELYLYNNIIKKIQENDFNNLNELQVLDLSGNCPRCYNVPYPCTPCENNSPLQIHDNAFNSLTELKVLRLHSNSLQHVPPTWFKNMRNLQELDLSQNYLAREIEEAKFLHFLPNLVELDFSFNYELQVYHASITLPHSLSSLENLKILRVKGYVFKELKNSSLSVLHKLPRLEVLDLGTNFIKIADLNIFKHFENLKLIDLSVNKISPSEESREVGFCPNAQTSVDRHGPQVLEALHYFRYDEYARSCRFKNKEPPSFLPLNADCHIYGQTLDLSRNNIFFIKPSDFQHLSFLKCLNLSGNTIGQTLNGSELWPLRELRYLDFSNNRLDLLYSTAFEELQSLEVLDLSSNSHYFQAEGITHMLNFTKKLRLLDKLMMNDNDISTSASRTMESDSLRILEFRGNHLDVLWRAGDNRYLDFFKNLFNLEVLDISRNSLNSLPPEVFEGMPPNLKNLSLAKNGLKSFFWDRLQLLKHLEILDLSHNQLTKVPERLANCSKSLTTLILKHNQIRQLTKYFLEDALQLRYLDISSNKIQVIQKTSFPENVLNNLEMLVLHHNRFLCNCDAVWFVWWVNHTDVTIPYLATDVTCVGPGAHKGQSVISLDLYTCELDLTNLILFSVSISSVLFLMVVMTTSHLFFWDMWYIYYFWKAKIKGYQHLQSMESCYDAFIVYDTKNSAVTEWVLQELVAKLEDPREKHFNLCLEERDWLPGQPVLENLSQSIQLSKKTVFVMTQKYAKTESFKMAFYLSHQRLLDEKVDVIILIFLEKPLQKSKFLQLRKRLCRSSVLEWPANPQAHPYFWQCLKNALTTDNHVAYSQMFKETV
Method: Cytokine ELISA. All cytokines were quantified using sandwich ELISA kits according to the manufacturer's instructions. These were mouse and human IFN-α (PBL Biomedical; Piscataway, N.J.) and IL-6 (eBioscience; San Diego, Calif.).
In Vivo Cytokine Induction. Animal studies were performed at Protiva Biotherapeutics in accordance with Canadian Council on Animal Care guidelines and following protocol approval by the local Animal Care and Use Committee. Female Balb/C mice were subjected to a two-week quarantine and acclimation period prior to use at six to eight-weeks of age. RNA formulations were administered by standard injection in the lateral tail vein in 0.2 ml PBS. Six hours after injection, blood was collected by cardiac puncture and processed as plasma for cytokine analysis. In experiments studying inhibition of cytokine induction by loxoribine, formulated RNA (100 μg) was administered IV 2 h prior to IV administration of 1 mg loxoribine in PBS. Blood was collected by cardiac puncture 2 h after administration of loxoribine and processed as plasma for cytokine analysis.

[2] = molecular target: T1, TLR7; assay: Immunostimulatory ssRNA-induced IFN-α/IL-6 production in murine Flt3L-derived dendritic cells; format: cell-based; set-up: Femurs and tibiae of female Balb/C mice were isolated; endogenous in cells; host or cells: Flt3L-derived dendritic cells cultured from bone marrow of female Balb/C mice; conditions: murine Flt3L DC; 1:1 molar ratio; 24 h
Method: Lipid Encapsulation of RNA and ODN. RNA or ODN were encapsulated in liposomes by a process of spontaneous vesicle formation as described in Judge et al., supra, and Jeffs et al., Pharm. Res., 22:362-372 (2005).
Flt3L-derived dendritic cells (DC) were generated as described in Gilliet et al., J. Exp. Med., 195:953-958 (2002), using 100 ng/ml murine Flt3-ligand (Peprotech) supplemented media. Femurs and tibiae of female Balb/C mice were isolated and rinsed in sterile PBS. The ends of bones were cut and marrow harvested in complete media (RPMI 1640, 10% heat inactivated FBS, 1% penicillin/streptomycin, 2 mM L-glutamine, 1 mM sodium pyruvate, 25 mM HEPES, 50 μM 2-mercaptoethanol). Bone marrow cells were passed through a 70 μm strainer and centrifuged at 1000 rpm for 7 min. and resuspended in complete media supplemented with 100 ng/ml murine Flt3L to 2×10^6 cells/ml. 2 ml of cells were seeded in 6-well plates and 1 ml fresh media was added every two to three days. On day 9 of culture, non-adherent cells were washed in complete media and plated into 96-well plates at concentrations ranging from 0.5 to 2.5×10^5 cells/well. […]
Cytokine ELISA. All cytokines were quantified using sandwich ELISA kits according to the manufacturer's instructions. […]

[3] = 100 μg formulated RNA IV 2 h prior to 1 mg Lox IV, plasma 2 h after Lox

Q: With “polyUmod21: 2′OMe-uridine homopolymer of 21 nucleotides in length (UUUUUUUUUUUUUUUUUUUUU; all 2'-O-methyl, backbone not given here)” as the substance, how does the “reduction of plasma IFN-α compared to PBS pre-treatment” value [1, 3] read?
A: Its value is 79%+/−5%.

Q: And the “reduction of plasma IFN-α compared to mice treated with GFP-S ssRNA” value [1, 3]?
A: The value was 92%+/−2%.

Q: And the “reduction of plasma IL-6 compared to PBS pre-treatment” value [1, 3]?
A: Its value is 72%+/−8%.

Q: And the “reduction of plasma IL-6 compared to mice treated with GFP-S ssRNA” value [1, 3]?
A: Its value is 96%+/−1%.

Q: And the “loxoribine-mediated cytokine induction relative to GFP-S ssRNA and PBS treated mice” value ([1]; pre-treatment 2 h prior to 1 mg Lox)?
A: The value was “significantly reduced”.

Q: And the “IFN-α production induced by immunostimulatory ssRNA when co-administered” value [2]?
A: The value was “completely abrogated measurable”.

Q: What about the “IL-6 production induced by immunostimulatory ssRNA when co-administered” value [2] of the same substance?
A: Its value is “completely abrogated measurable”.
